Assay results from US20250090441A1, “ANTI-CARIES PEPTIDES WITH ANTIMICROBIAL AND REMINERALIZING PROPERTIES AND METHODS THEREOF” (THE UNIVERSITY OF HONG KONG, priority 2023, published 2025).
Bridges are numbered along the chain shown (N, C = ends). Where no end group is shown, it is not given here.

How the values were obtained:
[1] = system: Candida albicans, ATCC 90028; type: cell-based; conditions: μM
Procedure: (§1) The antimicrobial properties of synthesized peptides against bacteria and fungi were evaluated using minimum inhibitory concentration (MIC) and minimum bactericidal/fungicidal concentration (MBC/MFC) tests (Wiegand et al. 2008). The tested species include Streptococcus mutans, UA159; Lacticaseibacillus casei, American Type Culture Collection (ATCC) 334; and Candida albicans, ATCC 90028. A 10 μL aliquot of bacterial culture (10^6 CFU/mL) in brain heart infusion (BHI) broth was added to 100 μL serial two-fold dilutions of experimental solutions. The optical density values at 660 nm were measured after 18 h of incubation. To determine the MBC, 10 μL of bacterial culture was taken from the well of MIC, and wells before and after the well of MIC, and transferred to blood agar. The test protocol for fungi was similar: the culture medium was a Roswell Park Memorial Institute (RPMI) 1640 Medium, the absorbance was measured at 520 nm, and Sabouraud dextrose agar was used for the MFC test. Chlorhexidine and medium were used as the positive and negative controls.

[2] = system: Lacticaseibacillus casei, ATCC 334; test: MIC and MBC/MFC test; type: cell-based; conditions: μM
Procedure: as §1

[3] = system: Streptococcus mutans, UA159; test: MIC and MBC/MFC test; type: cell-based; conditions: Streptococcus mutans (UA159); μM
Procedure: as §1

[4] = Remineralizing effects on enamel, chemical pH cycling model (SEM-EDS, Micro-CT, XRD); set-up: species or system human; conditions: 160 μM twice daily, pH cycling 8 days, n = 8; for Calcium to phosphate molar ratio: EDS; for Lesion depth / Mineral loss: Micro-CT
Procedure: Ten enamel slices were cut from extracted sound human molars. Each slice was separated into four blocks. A total of 40 enamel blocks were prepared. Then the surface of the enamel block was half-covered by an acid-resistant varnish. The exposed half was the experimental surface, and the varnished half was the internal control. Before use, all the enamel blocks were sterilized via autoclave (Niu et al. 2021d; Yu et al. 2018).
The pH-cycling procedure (16 h-demineralization at pH 4.5 and 8 h-remineralization at pH 7.0) was performed to enamel blocks for 8 days. The formula for demineralizing/remineralizing solution was employed from a previous study (Yu et al. 2018). The enamel blocks from the same enamel slice were treated twice daily with 160 μM GAPI (GAPI Group), 160 μM gallic acid (GA Group), 160 μM polyphemusin-I (PI Group), and sterile deionized water (Water Group). All enamel blocks after pH cycling were involved in sequent assessments.
The structure of the enamel surface was examined using SEM (n=8 per group) (Niu et al. 2021d). The elemental analysis of enamel surface was conducted using affiliated energy-dispersive X-ray spectroscopy (EDS). The calcium to phosphorus molar ratio was calculated (Niu et al. 2022). The mineral loss and lesion depth on the enamel blocks were assessed using microcomputed tomography (Micro-CT) (1076, SkyScan, Antwerp, Belgium) (n=8 per group) (Niu et al. 2022). The diffraction patterns of the enamel blocks were evaluated using X-ray diffraction analysis (XRD) (Rigaku SmartLab 9 kW, […]) (n=2 per group) (Yu et al. 2018).

Molecule	MBC/MFC [1]	MIC [1]	MBC/MFC [2]	MIC [2]	MBC/MFC [3]	MIC [3]	Calcium to phosphate molar ratio [4]	Lesion depth [4]	Mineral loss [4]
Polyphemusin-I (RRWCFRVCYRGFCYRKCR; disulfide 8-13, 4-17) [PI, reference compound]	0.6	0.3	160	20	80	20	1.70 ± 0.06	96 ± 9 μm	1.32 ± 0.26 gHApcm^−3
O=C(O)c1cc(O)c(O)c(O)c1 [GA, Gallic Acid]							1.82 ± 0.08	62 ± 12 μm	0.88 ± 0.24 gHApcm^−3
